Tests used:
[1] = tested on: patients with relapsing multiple sclerosis (MS); test: 6-month, placebo-controlled trial of oral FTY720 in 281 patients with relapsing MS; type: in vivo, human; conditions: oral 1.25 or 5.0 mg once-daily, 6 months
[2] = tested on: patients with relapsing multiple sclerosis (MS); test: Hamburg Quality of Life Questionnaire in MS (HAQUAMS) scores, core 6-month study and extension; type: in vivo, human
Description: Hamburg Quality of Life Questionnaire in MS (HAQUAMS) scores were recorded at baseline, month 3 (M3), and M6 during a core 6-month study, and M12 and M24 during an extension of the core study. The HAQUAMS consists of 38 items, 28 of which contribute to five sub-domains. Domain scores range from 1 to 5, with lower scores indicating improved HRQL. A total score was generated by averaging the five sub-domain scores.

[3] = tested on: patients with moderate asthma; test: randomized, double-blind, placebo-controlled ascending multiple oral dose study in patients with moderate asthma; type: in vivo, human; conditions: 0.5, 1.25 or 2.5 mg, 10 days
Description: A randomized, double-blind, placebo-controlled, parallel, time-lagged, ascending, multiple oral dose study, is performed in patients with moderate asthma: 36 patients in 3 cohorts (12 patients per cohort). In each cohort, patients are randomized between the FTY720 group (9 patients) and placebo (3 patients)
Cohort 1: FTY720 0.5 mg or placebo
Cohort 2: FTY720 1.25 mg or placebo
Cohort 3: FTY720 2.5 mg or placebo
Duration of treatment: 10 days.
Patients continue to take their standard daily dose of long-acting β2 agonist and inhaled corticosteroid throughout the study uninterrupted.
Pulmonary function test (FEV1, FEF25-75): is performed at 12-hour profile on Day 1 (pre-dose, 1, 2, 3, 4, 5, 6, and 12 hr post dose), 6-hour profile at baseline (Day −1) and on Day 10. An additional PFT is done 6 hours post dose on Days 2, 3, and 7.

[4] = tested on: patients with relapsing multiple sclerosis (MS); test: long-term extension of the study (up to 36 months, FTY720 once-daily)
Description: All patients who subsequently opted to enter a long-term extension of the study received FTY720 once-daily for up to 38 months.

[5] = tested on: lymphocyte counts / tolerability in adolescents; test: open-label, single-dose 28-day pharmacokinetic and safety/tolerability study in pediatric patients; type: in vivo, human
Description: An open-label, single-dose 28-day pharmacokinetic and safety/tolerability study of FTY720 in pediatric is performed (8 patients aged 11-17 years, 5 patients aged 8-10 years and 5 patients aged 1-5 years). The contents of 0.5 mg capsules is dispersed in water and administered as an oral solution at a dose of 0.07 mg/kg to a maximum dose of 5 mg. The dose is administered by study personnel either directly from the glass mixing vial or with an oral syringe followed by drinking 2 water-rinse cycles of the vial or syringe and an additional 50-200 mL of water.
Blood samples are collected for 28 days postdose and analyzed for fingolimod and fingolimod-phosphate blood concentrations by validated liquid chromatography methods with tandem mass spectrometry. Standard noncompartmental pharmacokinetic parameters are derived. Absolute lymphocyte counts are measured over 28 days to characterize the effect of FTY720 on lymphocyte decrease and recovery. Heart rate is recorded frequently for 24 hours postdose.
Safety and tolerability assessments includes information on adverse events, body height and weight, supine systolic and diastolic blood pressure and radial pulse rate; standard 12-lead electrocardiograms (ECGs) interpreted at eResearchTechnology, Inc (Philadelphia, Pa., USA); standard hematology, biochemistry, and urinalysis parameters; screens for Hepatitis B surface antigen (HBsAg), Hepatitis C antibodies, and HIV; and pregnancy tests.

[6] = after 36 months of continuous treatment

CCCCCCCCc1ccc(CCC(N)(CO)CO)cc1 [FTY720, 2-amino-2-[2-(4-octylphenyl)ethyl]propane-1,3-diol]
reduction of annualized relapse rate (ARR) versus placebo [1]: > 50%
reduction of cumulative number of gadolinium-enhancing (Gd+) lesions versus placebo [1]: up to 80%
HAQUAMS mean total score ([2]; M6, oral 1.25 mg): 1.9
HAQUAMS total score, mean change from baseline ([2]; M6, oral 1.25 mg): −0.02
HAQUAMS mean total score ([2]; M6, oral 5 mg): 1.9
HAQUAMS total score, mean change from baseline ([2]; M6, oral 5 mg): −0.01
HAQUAMS fatigue/thinking domain, change ([2]; baseline to M6, oral 1.25 mg (placebo +0.14; p=0.030)): −0.05
total HAQUAMS scores ([2]; through M24): Stable
tolerability of treatment initiation [3]: well tolerated
safety profile ([4]; 1.25 mg dose): good safety profile
clinical and MRI activity ([4]; after 3 years of follow-up, continuous oral 1.25 mg or 5.0 mg dose): persistent inhibition of clinical and MRI activity
ARR [4, 6]: 0.20-0.21
patients remained relapse-free [4, 6]: 68-73%
patients free from 6-month sustained disability progression ([4]; month 36): 76-80%
patients free from Gd+ lesions ([4]; month 36, each group): 88-89%
patients free from new T2 lesions ([4]; month 36, each group): 70-78%
discontinuation rate ([4]; months 12-24 of extension): 17.2%
diarrhea reported ([4]; months 24-36): 2.7%
dyspnea reported ([4]; months 24-36): 1.1%
nausea reported ([4]; months 24-36): 2.1%
discontinuation rate ([4]; months 24-36 of extension): 6.0%
lymphocyte count nadir ([5]; adolescents, single dose): 0.37±0.17 ×10^9/L
time of lymphocyte nadir (median) ([5]; adolescents, single dose): 2 days postdose
decrease of mean lymphocyte counts from predose ([5]; adolescents, single dose, predose count 2.64±1.04×10^9/L): 85%
lymphocyte count recovery ([5]; by end-of-study visit on day 28): back to baseline
tolerability ([5]; single dose 0.07 mg/kg oral solution, adolescents): well tolerated

Reference: patent US20170128389A1, “Paediatric Compositions For Treating Multiple Sclerosis” (Novartis AG, priority 2008, published 2017)
